Key:
Assay in all cases: relative viability (nuclei count vs DMSO), 5 days (fraction); higher = more cells survive
Ibrutinib + Bortezomib = compound: C=CC(=O)N1CCC[C@@H](n2nc(-c3ccc(Oc4ccccc4)cc3)c3c(N)ncnc32)C1 [Ibrutinib] + CC(C)C[C@H](NC(=O)[C@H](Cc1ccccc1)NC(=O)c1cnccn1)B(O)O [Bortezomib] (partner 0.002 µM)
How it was run: (§1)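 Lung cancer cell lines were pin-tool dosed in 1536-well plates on the day after seeding, with either a lone drug or a fixed anchor-drug dose plus five library-drug doses (not always all listed) in √10 steps. Nuclei were counted on 4× images after 5 days. Relative viability is the ratio of treated-well to vehicle-well nuclei counts, with each value a median of duplicate plates.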

Ibrutinib + Foretinib = compound: C=CC(=O)N1CCC[C@@H](n2nc(-c3ccc(Oc4ccccc4)cc3)c3c(N)ncnc32)C1 [Ibrutinib] + COc1cc2c(Oc3ccc(NC(=O)C4(C(=O)Nc5ccc(F)cc5)CC4)cc3F)ccnc2cc1OCCCN1CCOCC1 [Foretinib] (partner 0.25 µM)
How it was run: as §1

Ibrutinib + Linsitinib = compound: C=CC(=O)N1CCC[C@@H](n2nc(-c3ccc(Oc4ccccc4)cc3)c3c(N)ncnc32)C1 [Ibrutinib] + C[C@]1(O)C[C@@H](c2nc(-c3ccc4ccc(-c5ccccc5)nc4c3)c3c(N)nccn32)C1 [Linsitinib] (partner 1 µM)
How it was run: as §1

BMX-IN-1 + Foretinib = compound: C=CC(=O)Nc1cc(-n2c(=O)ccc3cnc4ccc(-c5ccc(NS(C)(=O)=O)cc5)cc4c32)ccc1C [BMX-IN-1] + COc1cc2c(Oc3ccc(NC(=O)C4(C(=O)Nc5ccc(F)cc5)CC4)cc3F)ccnc2cc1OCCCN1CCOCC1 [Foretinib] (partner 0.25 µM)
How it was run: as §1

| Cell Line | relative viability (Ibrutinib + Bortezomib; first compound 0.01581 µM) | relative viability (Ibrutinib + Bortezomib; first compound 0.05 µM) | relative viability (Ibrutinib + Bortezomib; first compound 0.1581 µM) | relative viability (Ibrutinib + Bortezomib; first compound 0.5 µM) | relative viability (Ibrutinib + Foretinib; first compound 0.005 µM) | relative viability (Ibrutinib + Foretinib; first compound 0.01581 µM) | relative viability (Ibrutinib + Foretinib; first compound 0.05 µM) | relative viability (Ibrutinib + Foretinib; first compound 0.1581 µM) | relative viability (Ibrutinib + Foretinib; first compound 0.5 µM) | relative viability (Ibrutinib + Linsitinib; first compound 0.005 µM) | relative viability (Ibrutinib + Linsitinib; first compound 0.01581 µM) | relative viability (Ibrutinib + Linsitinib; first compound 0.05 µM) | relative viability (Ibrutinib + Linsitinib; first compound 0.1581 µM) | relative viability (Ibrutinib + Linsitinib; first compound 0.5 µM) | relative viability (BMX-IN-1 + Foretinib; first compound 0.02 µM) | relative viability (BMX-IN-1 + Foretinib; first compound 0.2 µM) | relative viability (BMX-IN-1 + Foretinib; first compound 0.6325 µM) | relative viability (BMX-IN-1 + Foretinib; first compound 2 µM) | relative viability (Ibrutinib + Bortezomib; first compound 0.005 µM) |
| --- | --- | --- | --- | --- | --- | --- | --- | --- | --- | --- | --- | --- | --- | --- | --- | --- | --- | --- | --- |
| SK-LU-1 | 1.11 | 0.897 | 1.14 | 1.23 | 0.857 | 0.804 | 0.814 | 0.926 | 0.719 | 0.776 | 1.02 | 1.21 | 1.21 | 1.04 | 0.92 | 1.04 | 0.785 | 0.76 |  |
| SW 1573 | 0.97 | 0.8 | 0.992 | 0.984 | 0.816 | 0.733 | 1.01 | 0.844 | 0.879 | 0.732 | 0.761 | 0.925 | 0.814 | 0.809 | 0.953 | 0.947 | 1.02 | 0.337 | 0.771 |
| UMC-11 | 0.637 | 0.898 | 0.654 | 0.736 | 1.04 | 1.03 | 1.04 | 0.993 | 1.02 | 0.903 | 0.987 | 1.17 | 1.14 | 0.938 | 1.15 | 1.13 | 0.981 | 1.11 | 0.664 |

From the supplement of paper PMC10307832
